# Laboratory results: US11000033B2, “Ketone or oxime compound, and herbicide” (NISSAN CHEMICAL CORPORATION, priority 2014, dated 2021)
# Key:
# Format in all cases: in vivo
# [1] = system: Echinochloa oryzacola Vasing.; experiment: Test Example 1: herbicidal activity, application before weed generation in submerged conditions (symbol A); conditions: application herbicide amount 320 g/ha
# How it was run: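 Paddy pre-emergence test. Formulated emulsion, water-diluted to a predetermined rate, is applied to floodwater on sowing day; rice transplanted at 2.5 leaves. Effect read at 3 weeks on a 0–5 herbicidal-ratio scale.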
# transplanted rice plant = experiment: Test Example 1: effect on crop, application before weed generation in submerged conditions (symbol a); conditions: application herbicide amount 320 g/ha
# How it was run: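 Alluvial soil pots flooded to 4 cm water, sown with Echinochloa oryzacola, Scirpus juncoides and Monochoria vaginalis, then transplanted with 2.5 leaf stage rice seedlings; pre-emergence application. Greenhouse 25° C. to 30° C.; scored 0–5 by herbicidal ratio 3 weeks after application.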
# [2] = system: Echinochloa crus-galli var. crus-galli; experiment: Test Example 3: herbicidal effect by foliage application, Wagner pot (symbol H); conditions: application herbicide amount 320 g/ha
# How it was run: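 Plants sown in submerged alluvial soil (water depth 0.1–0.5 cm) in a 25–30 °C greenhouse and grown 14 days. An emulsion of the compound diluted in water to a set herbicide amount was sprayed uniformly on foliage. Effect on each plant scored 3 weeks after application.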
# Stellaria media = experiment: Test Example 4: herbicidal effect by soil treatment (symbol P); conditions: application herbicide amount 320 g/ha
# How it was run: (§1)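 Seeds were sown in sterilized diluvial soil, covered with about 1.5 cm of soil, and the soil surface was sprayed with a water-diluted emulsion of the compound at a predetermined rate. Plants grew in a greenhouse at 25° C. to 30° C.; effects were scored visually 3 weeks after application.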
# Veronica persica = experiment: Test Example 4: herbicidal effect by soil treatment (symbol R); conditions: application herbicide amount 320 g/ha
# How it was run: as §1
# corn = experiment: Test Example 4: effect on crop by soil treatment (symbol c); conditions: application herbicide amount 320 g/ha
# How it was run: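 Grown at 25° C. to 30° C. in a greenhouse, the crops came from seed sown spot-wise in sterilized diluvial soil under roughly 1.5 cm of covering soil.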
# soybean [3] = experiment: Test Example 4: effect on crop by soil treatment (symbol d); conditions: application herbicide amount 320 g/ha
# How it was run: (§2)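 The test used sterilized diluvial soil. Seed was set down in spots and overlaid with about 1.5 cm of soil before growth in a greenhouse kept at 25° C. to 30° C.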
# beet [4] = experiment: Test Example 4: effect on crop by soil treatment (symbol f); conditions: application herbicide amount 320 g/ha
# How it was run: as §2
# Alopecurus myosuroides = experiment: Test Example 5: herbicidal effect by foliage application, plastic box (symbol J); conditions: 320 g/ha, 3 weeks after application
# How it was run: (§3)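 Effect is rated 3 weeks after a foliar spray of water-diluted emulsion concentrate at a predetermined herbicide amount. Plants had grown 14 days in a 25° C. to 30° C. greenhouse from seed in sterilized diluvial soil.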
# Abutilon theophrasti = experiment: Test Example 5: herbicidal effect by foliage application, plastic box (symbol M); conditions: 320 g/ha, 3 weeks after application
# How it was run: as §3
# Galium spurium = experiment: Test Example 5: herbicidal effect by foliage application, plastic box (symbol Q); conditions: 320 g/ha, 3 weeks after application
# How it was run: as §3
# soybean [5] = experiment: Test Example 5: effect on crop by foliage application, plastic box (symbol d); conditions: 320 g/ha, 3 weeks after application
# How it was run: (§4)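 Crop and weed seeds sown in spots in sterilized diluvial soil in plastic boxes and covered with about 1.5 cm soil. Plants raised in a greenhouse at 25° C. to 30° C. for foliar application.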
# rice plant = experiment: Test Example 5: effect on crop by foliage application, plastic box (symbol b); conditions: 320 g/ha, 3 weeks after application
# How it was run: as §4
# wheat = experiment: Test Example 5: effect on crop by foliage application, plastic box (symbol e); conditions: 320 g/ha, 3 weeks after application
# How it was run: as §4
# beet [6] = experiment: Test Example 5: effect on crop by foliage application, plastic box (symbol f); conditions: 320 g/ha, 3 weeks after application
# How it was run: as §4
SMILES,"Herbicidal effect grade, A: Echinochloa oryzacola Vasing. [1]","Effect grade on crop, a: transplanted rice plant (transplanted rice plant)","herbicidal effect on H (Echinochloa crus-galli var. crus-galli), grade 0-5 [2]","P: Stellaria media, herbicidal effect grade (Stellaria media)","R: Veronica persica, herbicidal effect grade (Veronica persica)","c: corn, effect on crop grade (corn)","d: soybean, effect on crop grade (soybean [3])","f: beet, effect on crop grade (beet [4])","J: Alopecurus myosuroides, herbicidal effect (criteria of Test Example 1) (Alopecurus myosuroides)","M: Abutilon theophrasti, herbicidal effect (criteria of Test Example 1) (Abutilon theophrasti)","Q: Galium spurium, herbicidal effect (criteria of Test Example 1) (Galium spurium)","d: soybean, effect on crop (criteria of Test Example 1) (soybean [5])","b: directly sowed rice plant, effect on crop (criteria of Test Example 1) (rice plant)","e: wheat, effect on crop (criteria of Test Example 1) (wheat)","f: beet, effect on crop (criteria of Test Example 1) (beet [6])","Herbicidal effect grade, P: Stellaria media (Stellaria media)","Herbicidal effect grade, R: Veronica persica (Veronica persica)","Effect on crop grade, c: corn (corn)","Effect on crop grade, d: soybean (soybean [3])","Effect on crop grade, f: beet (beet [4])"
CON=C(C)CC1CC(OC(=O)CCCC(C)=O)=C(c2c(C)cc(-c3ccc(Cl)cc3)cc2C)C1=O (stereo not drawn) [6-080],5 (Herbicidal ratio of 90% or more (almost completely withered)),5 (Herbicidal ratio of 90% or more (almost completely withered)),5 (Herbicidal ratio of 90% or more (almost completely withered)),0 (Herbicidal ratio of 5% or lower (almost no effect)),0 (Herbicidal ratio of 5% or lower (almost no effect)),0 (Herbicidal ratio of 5% or lower (almost no effect)),0 (Herbicidal ratio of 5% or lower (almost no effect)),0 (Herbicidal ratio of 5% or lower (almost no effect)),5 (Herbicidal ratio of 90% or more (almost completely withered)),4 (Herbicidal ratio of 70% or higher and lower than 90%),4 (Herbicidal ratio of 70% or higher and lower than 90%),1 (Herbicidal ratio of 5% or higher and lower than 20%),5 (Herbicidal ratio of 90% or more (almost completely withered)),5 (Herbicidal ratio of 90% or more (almost completely withered)),0 (Herbicidal ratio of 5% or lower (almost no effect)),,,,,
CON=C(C)C(C)C1CC(O)=C(c2c(C)cc(Br)cc2OC)C1=O (stereo not drawn) [6-113],4 (Herbicidal ratio of 70% or higher and lower than 90%),5 (Herbicidal ratio of 90% or more (almost completely withered)),5 (Herbicidal ratio of 90% or more (almost completely withered)),,,,,,5 (Herbicidal ratio of 90% or more (almost completely withered)),0 (Herbicidal ratio of 5% or lower (almost no effect)),0 (Herbicidal ratio of 5% or lower (almost no effect)),0 (Herbicidal ratio of 5% or lower (almost no effect)),5 (Herbicidal ratio of 90% or more (almost completely withered)),5 (Herbicidal ratio of 90% or more (almost completely withered)),0 (Herbicidal ratio of 5% or lower (almost no effect)),0 (Herbicidal ratio of 5% or lower (almost no effect)),0 (Herbicidal ratio of 5% or lower (almost no effect)),1 (Herbicidal ratio of 5% or higher and lower than 20%),0 (Herbicidal ratio of 5% or lower (almost no effect)),0 (Herbicidal ratio of 5% or lower (almost no effect))
